The text below walks through data of patent US20080124753A1, “SpiceMatrix Technology for Taste Compound Identification” (priority 2006, published 2008).

Each structure is given as a SMILES string. Entries after “also recorded” stand apart in the source; their conditions may differ.

The target of assay [1] is T1, TRPA1 (Homo sapiens, UniProt O75762). The assay is described as follows: FMP membrane potential fluorescence assay, TRPA1 transfected HEK 293 cells. It counts as cell-based. Conditions: for relative stimulation of TRPA1 (SpiceMatrix reactivity): FIG. 2A, relative to untransfected HEK-293 cells (Parentals), among 68 compounds. An excerpt:
(§1) As described in greater detail below, HEK 293 cells, transiently transfected with plasmid bearing the genes encoding the various ion channels, were used to develop SpiceMatrix fingerprint assay. Indirect measurement of the changes in ion concentrations within the HEK 293 cells were made using a FMP dye and stimulation of the cells using calcium activating agents. Described below are the conditions for screening using TRPM5. Screening conditions for other TRP ion channels were similar to those described unless otherwise indicated.
1.0×10^6 HEK 293 cells (ATCC) were plated in each well of a 6-well tissue culture dish overnight. The following day, cells were transfected with 4 μg of a pcDNA3.2 vector containing TRPM5 cDNA and 8 μl of Lipofectamine 2000 (Invitrogen), according to the manufacturer's protocol, and incubated overnight. The following day, transfected cells were trypsinized and seeded into 96-well black, clear bottom, poly-D-lysine plates (Corning) at a density of 70,000 cells/well in a 100 μl volume and incubated in a 37° C./5% CO2 incubator overnight.
Once the expression of TRPM5 was confirmed in the HEK cells, 100 μl of the Blue or Red FMP dye (Molecular Devices) was added to each well of plates seeded with the transiently transfected cells. The plate was then incubated in a 37° C./5% CO2 incubator for 1 hour. The plate was read in a FLEXStation microplate reader (Molecular Devices) with an excitation of 530 nm and an emission of 565 nm. The fluorescence was monitored for 3 minutes upon exposure of the cells to a calcium activating agent (carbachol, thrombin peptide or ATP).
For screening of taste compounds, sample dilution sets (four 384 sample plates) were tested in 5, dye-loaded, cell lines to yield 20 assay plates for data collection. One cell plate, a sample plate, and an agonist sample source plate were placed in the FLIPR. To identify samples with agonist activity, 10 μl of samples or standards were added to the cell plate, and sample agonist response fluorescent readings taken for 3 minutes. To identify samples with antagonist activity, agonist, e.g. 100 μM cinnamaldehyde for TRPA1, was added to all wells and agonist response fluorescent readings were taken for 2 minutes. Sample that block this response were nominally antagonists.

Assay [2] concerns the target T1, TRPA1. Conditions: literature reports; cited from earlier work.
The target in assay [3] is T2, TRPM5 (Homo sapiens, UniProt Q9NZQ8).
T2 construct: The full length TRPM5 was excised from the TOPO TA vector; expressed in transfected cells; host or cells: HEK 293 (ATCC)
T2 sequence (Q9NZQ8 1-1165): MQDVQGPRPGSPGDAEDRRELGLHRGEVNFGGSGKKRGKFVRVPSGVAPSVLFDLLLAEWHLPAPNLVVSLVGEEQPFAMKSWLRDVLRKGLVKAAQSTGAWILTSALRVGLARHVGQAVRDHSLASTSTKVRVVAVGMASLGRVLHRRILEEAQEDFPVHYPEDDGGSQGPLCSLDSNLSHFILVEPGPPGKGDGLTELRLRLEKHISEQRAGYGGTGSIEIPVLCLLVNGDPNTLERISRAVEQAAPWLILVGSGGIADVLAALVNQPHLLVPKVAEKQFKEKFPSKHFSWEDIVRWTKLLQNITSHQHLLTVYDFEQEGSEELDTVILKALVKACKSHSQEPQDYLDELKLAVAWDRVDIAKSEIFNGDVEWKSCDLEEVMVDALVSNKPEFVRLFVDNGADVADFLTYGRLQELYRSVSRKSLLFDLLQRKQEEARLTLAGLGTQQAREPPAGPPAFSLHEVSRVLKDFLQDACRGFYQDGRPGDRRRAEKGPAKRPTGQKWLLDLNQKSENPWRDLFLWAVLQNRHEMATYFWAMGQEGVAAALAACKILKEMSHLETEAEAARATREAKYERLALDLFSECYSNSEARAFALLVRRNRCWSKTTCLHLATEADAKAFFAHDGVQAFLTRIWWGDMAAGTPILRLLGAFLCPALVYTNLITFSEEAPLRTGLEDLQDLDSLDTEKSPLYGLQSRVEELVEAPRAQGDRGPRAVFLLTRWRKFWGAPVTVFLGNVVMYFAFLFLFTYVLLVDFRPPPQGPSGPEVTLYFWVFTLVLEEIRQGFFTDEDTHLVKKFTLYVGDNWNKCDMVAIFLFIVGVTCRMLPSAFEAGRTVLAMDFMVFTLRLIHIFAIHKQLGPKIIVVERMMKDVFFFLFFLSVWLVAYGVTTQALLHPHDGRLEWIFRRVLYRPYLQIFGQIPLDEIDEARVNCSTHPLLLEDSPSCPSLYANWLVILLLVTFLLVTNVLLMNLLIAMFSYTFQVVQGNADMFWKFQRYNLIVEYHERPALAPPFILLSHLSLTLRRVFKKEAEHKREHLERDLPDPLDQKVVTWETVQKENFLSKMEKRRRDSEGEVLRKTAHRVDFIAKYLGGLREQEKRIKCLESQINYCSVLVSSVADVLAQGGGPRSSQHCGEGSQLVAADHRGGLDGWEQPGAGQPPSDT
The assay is described as follows: FMP membrane potential fluorescence assay, TRPM5 transfected HEK 293 cells. It counts as cell-based. The source says: As described in greater detail below, HEK 293 cells, transiently transfected with plasmid bearing the genes encoding the various ion channels, were used to develop SpiceMatrix fingerprint assay. Indirect measurement of the changes in ion concentrations within the HEK 293 cells were made using a FMP dye and stimulation of the cells using calcium activating agents. Described below are the conditions for screening using TRPM5. Screening conditions for other TRP ion channels were similar to those described unless otherwise indicated. […]
Once the expression of TRPM5 was confirmed in the HEK cells, 100 μl of the Blue or Red FMP dye (Molecular Devices) was added to each well of plates seeded with the transiently transfected cells. […] The plate was read in a FLEXStation microplate reader (Molecular Devices) with an excitation of 530 nm and an emission of 565 nm. The fluorescence was monitored for 3 minutes upon exposure of the cells to a calcium activating agent (carbachol, thrombin peptide or ATP).
For screening of taste compounds, sample dilution sets (four 384 sample plates) were tested in 5, dye-loaded, cell lines to yield 20 assay plates for data collection. […] To identify samples with agonist activity, 10 μl of samples or standards were added to the cell plate, and sample agonist response fluorescent readings taken for 3 minutes. […]

Assay [4] addresses T3, TRPV1 (Homo sapiens, UniProt Q8NER1). Nature of the assay: FMP membrane potential fluorescence assay, TRPV1 transfected HEK 293 cells. It counts as cell-based.
Source text: as §1
(§2) 1.0×10^6 HEK 293 cells (ATCC) were plated in each well of a 6-well tissue culture dish overnight. The following day, cells were transfected with 4 μg of a pcDNA3.2 vector containing TRPM5 cDNA and 8 μl of Lipofectamine 2000 (Invitrogen), according to the manufacturer's protocol, and incubated overnight. […]
(§3) Once the expression of TRPM5 was confirmed in the HEK cells, 100 μl of the Blue or Red FMP dye (Molecular Devices) was added to each well of plates seeded with the transiently transfected cells. […] The plate was read in a FLEXStation microplate reader (Molecular Devices) with an excitation of 530 nm and an emission of 565 nm. The fluorescence was monitored for 3 minutes upon exposure of the cells to a calcium activating agent (carbachol, thrombin peptide or ATP). […]

Assay [5] deals with T4, TRPM8 (Homo sapiens, UniProt Q7Z2W7). Conditions: literature reports; cited from earlier work.
T4 sequence (Q7Z2W7 whole entry): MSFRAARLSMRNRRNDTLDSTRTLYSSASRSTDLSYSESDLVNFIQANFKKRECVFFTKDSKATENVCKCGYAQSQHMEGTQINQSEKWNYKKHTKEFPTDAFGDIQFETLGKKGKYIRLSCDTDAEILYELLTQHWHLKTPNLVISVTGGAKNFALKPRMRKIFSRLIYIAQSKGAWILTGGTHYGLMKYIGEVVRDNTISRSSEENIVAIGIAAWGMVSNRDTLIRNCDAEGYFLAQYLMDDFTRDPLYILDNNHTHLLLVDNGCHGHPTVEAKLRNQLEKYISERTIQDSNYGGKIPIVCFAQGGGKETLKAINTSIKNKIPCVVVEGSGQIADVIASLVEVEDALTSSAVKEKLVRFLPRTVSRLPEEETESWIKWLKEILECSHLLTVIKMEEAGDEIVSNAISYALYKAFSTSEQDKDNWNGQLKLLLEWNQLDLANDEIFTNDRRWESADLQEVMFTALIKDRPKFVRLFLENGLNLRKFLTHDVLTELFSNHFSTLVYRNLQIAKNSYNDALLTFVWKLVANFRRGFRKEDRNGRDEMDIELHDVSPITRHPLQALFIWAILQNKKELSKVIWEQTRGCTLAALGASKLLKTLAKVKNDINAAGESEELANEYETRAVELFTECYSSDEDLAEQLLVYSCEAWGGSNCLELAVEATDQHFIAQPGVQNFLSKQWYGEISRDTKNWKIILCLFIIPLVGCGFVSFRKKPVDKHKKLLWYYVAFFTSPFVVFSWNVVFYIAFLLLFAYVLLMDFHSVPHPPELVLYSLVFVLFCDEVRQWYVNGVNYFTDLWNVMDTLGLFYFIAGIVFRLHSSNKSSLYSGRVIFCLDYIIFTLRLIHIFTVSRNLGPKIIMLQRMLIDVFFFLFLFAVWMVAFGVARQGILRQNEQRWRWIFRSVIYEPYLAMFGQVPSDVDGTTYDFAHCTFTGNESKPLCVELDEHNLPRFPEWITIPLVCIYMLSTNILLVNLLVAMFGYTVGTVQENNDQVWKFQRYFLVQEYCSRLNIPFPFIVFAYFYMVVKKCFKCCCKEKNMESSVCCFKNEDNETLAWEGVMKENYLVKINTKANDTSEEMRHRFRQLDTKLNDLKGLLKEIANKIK
Assay [6] deals with T3, TRPV1. The following applies: literature report (Calixto et al.); cited from earlier work.
The target in assay [7] is T5, mouse TRPA1 (Mus musculus, UniProt Q8BLA8).
T5 construct: host or cells: CHO
T5 sequence (Q8BLA8 whole entry): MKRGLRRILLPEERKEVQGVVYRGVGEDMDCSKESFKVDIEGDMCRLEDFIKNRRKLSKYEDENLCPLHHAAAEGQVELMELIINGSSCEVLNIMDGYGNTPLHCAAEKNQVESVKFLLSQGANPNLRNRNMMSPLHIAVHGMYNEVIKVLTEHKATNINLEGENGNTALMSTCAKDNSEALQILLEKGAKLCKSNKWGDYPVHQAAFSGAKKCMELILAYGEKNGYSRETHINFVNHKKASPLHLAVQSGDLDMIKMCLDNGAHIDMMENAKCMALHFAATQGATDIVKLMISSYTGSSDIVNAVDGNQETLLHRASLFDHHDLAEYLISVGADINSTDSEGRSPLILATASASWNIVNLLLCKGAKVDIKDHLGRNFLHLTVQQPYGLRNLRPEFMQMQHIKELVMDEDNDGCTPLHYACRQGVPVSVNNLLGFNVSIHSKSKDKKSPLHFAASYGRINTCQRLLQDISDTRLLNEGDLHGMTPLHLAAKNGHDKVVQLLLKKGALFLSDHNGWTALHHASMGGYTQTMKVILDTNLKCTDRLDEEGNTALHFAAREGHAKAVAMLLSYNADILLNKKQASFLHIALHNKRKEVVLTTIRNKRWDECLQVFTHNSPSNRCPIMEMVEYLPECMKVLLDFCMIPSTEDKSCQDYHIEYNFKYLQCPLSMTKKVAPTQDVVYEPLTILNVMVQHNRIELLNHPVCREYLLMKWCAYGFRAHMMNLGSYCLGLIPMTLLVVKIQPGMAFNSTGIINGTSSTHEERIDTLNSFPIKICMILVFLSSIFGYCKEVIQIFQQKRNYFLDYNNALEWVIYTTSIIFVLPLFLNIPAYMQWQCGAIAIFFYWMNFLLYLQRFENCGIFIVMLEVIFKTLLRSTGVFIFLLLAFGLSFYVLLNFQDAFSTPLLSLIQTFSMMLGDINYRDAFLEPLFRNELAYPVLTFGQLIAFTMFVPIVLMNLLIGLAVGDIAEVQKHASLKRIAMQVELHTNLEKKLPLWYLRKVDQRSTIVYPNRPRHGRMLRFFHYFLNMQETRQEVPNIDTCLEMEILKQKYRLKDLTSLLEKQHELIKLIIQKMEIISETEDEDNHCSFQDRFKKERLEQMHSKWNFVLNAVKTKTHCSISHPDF
Conditions: mouse TRPA1-CHO cells, literature report; cited from earlier work.

Assay [8] concerns the target T4, TRPM8. Nature of the assay: FMP membrane potential fluorescence assay, TRPM8 transfected HEK 293 cells. It counts as cell-based. The following applies: FIG. 1D, FLIPR.
Source text: as §1, §2, §3

T3 sequence (Q8NER1 whole entry): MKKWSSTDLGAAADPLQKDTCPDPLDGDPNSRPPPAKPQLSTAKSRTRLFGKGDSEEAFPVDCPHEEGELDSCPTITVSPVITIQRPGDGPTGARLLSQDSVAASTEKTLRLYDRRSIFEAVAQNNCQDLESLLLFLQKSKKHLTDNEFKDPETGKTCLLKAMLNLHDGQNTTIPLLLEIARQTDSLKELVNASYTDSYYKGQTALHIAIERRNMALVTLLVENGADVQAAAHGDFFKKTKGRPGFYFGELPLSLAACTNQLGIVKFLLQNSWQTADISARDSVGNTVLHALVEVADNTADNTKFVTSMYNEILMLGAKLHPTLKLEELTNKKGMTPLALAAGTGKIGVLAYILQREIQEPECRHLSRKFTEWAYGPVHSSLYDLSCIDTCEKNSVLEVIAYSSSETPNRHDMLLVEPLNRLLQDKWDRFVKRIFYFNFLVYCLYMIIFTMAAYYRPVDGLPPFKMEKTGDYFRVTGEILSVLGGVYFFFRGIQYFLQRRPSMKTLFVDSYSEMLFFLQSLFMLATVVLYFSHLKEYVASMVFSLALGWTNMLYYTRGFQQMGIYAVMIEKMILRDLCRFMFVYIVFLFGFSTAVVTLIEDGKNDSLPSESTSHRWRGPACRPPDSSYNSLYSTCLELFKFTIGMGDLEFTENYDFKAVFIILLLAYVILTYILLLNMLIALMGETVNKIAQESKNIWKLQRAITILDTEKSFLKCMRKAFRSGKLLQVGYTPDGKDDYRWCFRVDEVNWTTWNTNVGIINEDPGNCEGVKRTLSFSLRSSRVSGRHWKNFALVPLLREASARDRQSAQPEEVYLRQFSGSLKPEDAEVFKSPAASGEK
T1 sequence (O75762 whole entry): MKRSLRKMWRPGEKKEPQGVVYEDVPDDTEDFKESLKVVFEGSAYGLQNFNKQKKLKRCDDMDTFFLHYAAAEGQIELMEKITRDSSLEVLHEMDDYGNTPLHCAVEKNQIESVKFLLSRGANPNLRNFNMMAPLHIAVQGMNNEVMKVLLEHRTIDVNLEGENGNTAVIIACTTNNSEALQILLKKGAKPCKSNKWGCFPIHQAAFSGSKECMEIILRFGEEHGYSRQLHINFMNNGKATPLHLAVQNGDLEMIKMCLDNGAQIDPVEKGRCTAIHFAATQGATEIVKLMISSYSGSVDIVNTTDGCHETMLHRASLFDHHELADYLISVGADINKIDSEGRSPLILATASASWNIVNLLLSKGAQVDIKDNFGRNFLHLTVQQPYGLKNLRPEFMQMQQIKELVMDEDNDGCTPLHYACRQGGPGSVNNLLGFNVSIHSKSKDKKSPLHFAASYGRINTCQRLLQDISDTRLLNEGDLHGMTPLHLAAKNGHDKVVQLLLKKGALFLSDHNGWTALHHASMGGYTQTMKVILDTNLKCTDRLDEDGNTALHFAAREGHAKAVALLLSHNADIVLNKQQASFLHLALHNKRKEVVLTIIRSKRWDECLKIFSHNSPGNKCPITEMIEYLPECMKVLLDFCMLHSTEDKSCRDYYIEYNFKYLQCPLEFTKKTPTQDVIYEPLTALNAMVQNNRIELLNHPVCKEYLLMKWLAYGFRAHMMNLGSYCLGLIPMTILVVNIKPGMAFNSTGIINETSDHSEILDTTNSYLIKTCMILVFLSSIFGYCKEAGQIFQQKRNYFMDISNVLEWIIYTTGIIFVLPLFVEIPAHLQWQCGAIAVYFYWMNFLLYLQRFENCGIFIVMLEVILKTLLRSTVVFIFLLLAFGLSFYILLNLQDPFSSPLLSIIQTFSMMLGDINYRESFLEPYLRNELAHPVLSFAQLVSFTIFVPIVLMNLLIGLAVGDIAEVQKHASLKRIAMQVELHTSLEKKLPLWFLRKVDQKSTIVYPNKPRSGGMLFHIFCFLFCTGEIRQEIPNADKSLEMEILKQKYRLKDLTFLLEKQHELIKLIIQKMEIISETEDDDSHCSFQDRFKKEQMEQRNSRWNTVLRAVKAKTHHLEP

Regarding `CC1CCC(C(C)C)C(O)C1` (single isomer, unassigned; (-)) [(−) menthol], the “relative stimulation of TRPA1 (SpiceMatrix reactivity)” value (from here on “relative stimulation of TRPA1”) in assay [1] is listed as “greatest stimulation of TRPA1”.

As for `CCCCCc1cc(O)c2c(c1)OC(C)(C)[C@@H]1CCC(C)=C[C@@H]21` [A^9-tetrahydrocannabinol], in assay [2], the “activation of TRPA1” value is reported as “activated”.

With `C=CCN=C=S` [allyl isothiocyanate], in assay [1], the “relative stimulation of TRPA1” value is given as “highly reactive”. For the same compound, the “activation of TRPA1” value in assay [2] is on record as “specific activators of TRPA1”. Moreover, the “relative stimulation of TRPM5 (SpiceMatrix reactivity)” value in assay [3] (FIG. 2, relative to untransfected HEK-293 cells (Parentals)) is on record as “highly reactive”.

For `COc1cc(CNC(=O)CCCC/C=C/C(C)C)ccc1O` [capsaicin], in assay [4] (FIG. 1C, TRPV1 transfected cells, FMP dye, FLIPR), the “change in relative fluorescent intensity of a voltage-sensitive dye” value (“change in relative fluorescent intensity” below) is on record as “strong spike in relative fluorescence; also recorded: activates TRPV1”.

Take `C[N+](C)(C)CCOC(N)=O` [carbachol]: the “change in relative fluorescent intensity” value in assay [3] (FIG. 1B, TRPM5 transfected cells, FMP dye, FLIPR) is listed as “strong spike in relative fluorescence; also recorded: increases TRPM5”.

Consider `O=CC=Cc1ccccc1` [cinnamaldehyde], for which, in assay [1] (FIG. 1A, TRPA1 transfected cells, FMP dye, FLIPR), the “change in relative fluorescent intensity” value was “strong spike in relative fluorescence; also recorded: activates TRPA1”. The “relative stimulation of TRPA1” value in assay [1] is listed as “greatest stimulation of TRPA1”. Moreover, the “activation of TRPA1” value in assay [2] was “activated; also recorded: specific activators of TRPA1”.

Take `C=CCc1ccc(O)c(OC)c1` [eugenol]: the “activation of TRPA1” value in assay [2] was “activate”. Also, in assay [5], the “activation of TRPM8” value is listed as “activate”. In assay [6], the “activation of TRPV1” value is recorded as “activate”. Besides, the “increase in intracellular free Ca2+” value in assay [7] is recorded as “sharp increase”.

As for `CCCCC[C@H](O)CC(=O)CCc1ccc(O)c(OC)c1` [gingerol], the “relative stimulation of TRPV1 (SpiceMatrix reactivity)” value in assay [4] (FIG. 2A, relative to untransfected HEK-293 cells (Parentals), among 68 compounds) was “highest degree of stimulation to TRPV1”. Besides, the “activation of TRPA1” value in assay [2] is listed as “activate”. In addition, the “activation of TRPM8” value in assay [5] was “activate”. Also, the “activation of TRPV1” value in assay [6] is listed as “activate”. Also, the “increase in intracellular free Ca2+” value in assay [7] is “sharp increase”.

With `CC1CCC(C(C)C)C(O)C1` (stereo not shown) [menthol], in assay [5], the “activation of TRPM8” value was “activate the TRPM8”. In assay [8], the “change in relative fluorescent intensity” value is given as “strong spike in relative fluorescence; also recorded: activates TRPM8”.

Take `COC(=O)c1ccccc1O` [methyl salicylate]: the “activation of TRPA1” value in assay [2] was “activate”. Moreover, the “activation of TRPM8” value in assay [5] is “activate”. The “activation of TRPV1” value in assay [6] is on record as “activate”. Further, the “increase in intracellular free Ca2+” value in assay [7] is on record as “sharp increase”.
